Experimental data published in ChEMBL document CHEMBL3046434, “cAMP-dependent phosphodiesterase inhibition and SAR studies on novel 6,8-disubstituted 2-phenyl-3-(substituted benzothiazole-2-yl)-4[3H]-quinazolinone” (Med Chem Res, 2009).

target: T1, PDE7B protein (Bos taurus) (UniProt A6QP37); assay: Inhibition of Bos taurus (bovine) heart cAMP-dependent phosphodiesterase assessed as inhibition of cyclic AMP to 5' AMP after 20 min by spectrophotometry relative to theophylline
T1 sequence (whole entry): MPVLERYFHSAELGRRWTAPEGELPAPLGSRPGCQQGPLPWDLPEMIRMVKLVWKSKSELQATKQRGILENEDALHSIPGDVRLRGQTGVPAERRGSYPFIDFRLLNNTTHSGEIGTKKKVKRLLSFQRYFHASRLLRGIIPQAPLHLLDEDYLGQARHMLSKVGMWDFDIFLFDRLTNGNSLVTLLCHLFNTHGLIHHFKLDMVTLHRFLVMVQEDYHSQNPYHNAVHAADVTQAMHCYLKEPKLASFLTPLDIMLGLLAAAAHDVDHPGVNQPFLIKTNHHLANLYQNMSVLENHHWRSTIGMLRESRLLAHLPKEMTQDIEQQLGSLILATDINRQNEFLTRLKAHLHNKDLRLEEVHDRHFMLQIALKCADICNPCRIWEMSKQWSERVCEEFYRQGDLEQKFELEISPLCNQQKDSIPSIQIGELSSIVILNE

Ratio	SMILES
1.47	O=c1c2ccccc2nc(-c2ccccc2)n1-c1nc2ccc([N+](=O)[O-])cc2s1
1.41	CCOc1ccc2sc(-n3c(-c4ccccc4)nc4ccccc4c3=O)nc2c1
1.27	Cc1cccc2sc(-n3c(-c4ccccc4)nc4ccccc4c3=O)nc12
1.35	Cc1cc(C)c2nc(-n3c(-c4ccccc4)nc4ccccc4c3=O)sc2c1
0.869	O=c1c2cc(Br)cc(Br)c2nc(-c2ccccc2)n1-c1nc2ccc([N+](=O)[O-])cc2s1
1.13	Cc1ccc2sc(-n3c(-c4ccccc4)nc4c(Br)cc(Br)cc4c3=O)nc2c1
1.18	COc1ccc2sc(-n3c(-c4ccccc4)nc4c(Br)cc(Br)cc4c3=O)nc2c1
1.28	O=c1c2ccccc2nc(-c2ccccc2)n1-c1nc2ccc(Br)cc2s1
0.927	O=c1c2cc(Br)cc(Br)c2nc(-c2ccccc2)n1-c1nc2ccc(Br)cc2s1
1.18	COc1cccc2sc(-n3c(-c4ccccc4)nc4c(Br)cc(Br)cc4c3=O)nc12
1.22	CCOc1ccc2sc(-n3c(-c4ccccc4)nc4c(Br)cc(Br)cc4c3=O)nc2c1
1.33	COc1cccc2sc(-n3c(-c4ccccc4)nc4ccccc4c3=O)nc12
1.34	COc1ccc2sc(-n3c(-c4ccccc4)nc4ccccc4c3=O)nc2c1
1.22	O=c1c2ccccc2nc(-c2ccccc2)n1-c1nc2ccccc2s1
1.14	Cc1cccc2sc(-n3c(-c4ccccc4)nc4c(Br)cc(Br)cc4c3=O)nc12
1.29	Cc1ccc2sc(-n3c(-c4ccccc4)nc4ccccc4c3=O)nc2c1
1.38	CCOc1ccc2nc(-n3c(-c4ccccc4)nc4ccccc4c3=O)sc2c1
1.08	O=c1c2cc(Br)cc(Br)c2nc(-c2ccccc2)n1-c1nc2ccccc2s1
1.35	COc1ccc2nc(-n3c(-c4ccccc4)nc4ccccc4c3=O)sc2c1
1.38	CCOc1cccc2sc(-n3c(-c4ccccc4)nc4ccccc4c3=O)nc12
1.21	CCOc1cccc2sc(-n3c(-c4ccccc4)nc4c(Br)cc(Br)cc4c3=O)nc12
1.2	COc1ccc2nc(-n3c(-c4ccccc4)nc4c(Br)cc(Br)cc4c3=O)sc2c1
1.17	Cc1cc(C)c2nc(-n3c(-c4ccccc4)nc4c(Br)cc(Br)cc4c3=O)sc2c1
1.21	O=c1c2ccccc2nc(-c2ccccc2)n1-c1nc2cc(Cl)ccc2s1
1.19	CCOc1ccc2nc(-n3c(-c4ccccc4)nc4c(Br)cc(Br)cc4c3=O)sc2c1
0.844	O=c1c2cc(Br)cc(Br)c2nc(-c2ccccc2)n1-c1nc2cc(Cl)ccc2s1

SMILES	Ratio
Cn1c(=O)c2[nH]cnc2n(C)c1=O	1
